Where two headings read alike, the source gives them in different places.
Columns and labels:
[1] = test system: SDH-KO-HRAS cells (SDHB-deficient); experiment: Cellular / differential toxicity assay (CellTiter-Glo, 3 days); type: cell-based, murine; conditions: toxicity, SDH-KO cells, 3 days, CellTiter-Glo, read-out: EC50 (uM) SDH-KO-HTAS-C17
Procedure: (§1) Identification of compounds that target specifically SDH-deficient cells was done by screening a library of small-molecule by using a differential toxicity screen with SDHB-proficient vs. SDHB-deficient cells (the […] cells were described in Cardaci 2015).
(§2) Cells Used for the Differential Assays: SDH-WT; SDH-KO-HRAS
(§3) Cell Culture Conditions: • Medium: DMEM-F12 medium+1 mM Glutamine+3% FBS • Plates: 96 well plate—Black, clear flat bottom • Incubation time: 3 days • Compound concentration: 10 point dilution starting from 10 uM to 0.0065 uM or a lower range when needed. • Viability assay at the end of incubation: Celltiter-Glo (CTG) from Promega.
(§4) Protocol: • Day 1: Plate cells in 96 well plate together with the appropriate concentration of compound.
(§5) Incubate for 3 days at 37° C. in 5% CO2 tissue culture incubator. • Day 4: Check viability of cells by adding CTG reagent and read luminescence in plate reader
(§6) SDH-WT and SDH-KO cells were grown in DMEM F12 supplemented with 1 mM Glutamine+3% FBS were treated with different concentrations of the indicated compounds in FIG. 11. Cell viability was determined 72 hours later by CellTiter Glue reagent (Promega), the luminescence was measured with ClarioStar reader (BMG) and the EC50s were calculated by Prism.
as §6, with “compounds.” for “compounds in FIG. 11.”
(§7) The cells were grown in DMEM F12 supplemented with 1 mM Glutamine+3% FBS were treated with different concentrations of the indicated compounds. Cell viability was determined 72 hours later by CellTiter Glue reagent (Promega), the luminescence was measured with ClarioStar reader (BMG) and the EC50s were calculated by Prism. Murine SDHB-WT/KO, HRAS transformed isogenic pair (FIG. 12A); UOK269, Human Tumor-derived SDHB-deficient RCC in their WT counterpart with re-expression of SDHB (FIG. 12B); and ACHN, RCC cells, and their SDHB-KO (SDHB CRISPRed out) isogenic cells (FIG. 12C).

[2] = test system: SDH-WT cells; experiment: as above; type: cell-based, murine; conditions: toxicity, SDH-WT cells, 3 days, CellTiter-Glo, read-out: EC50 (uM) SDH-WT
Procedure: as §1, §2, §3, §4, §5, §6
as §6, with “compounds.” for “compounds in FIG. 11.”
as §7

SMILES | EC50 ([1]; Mus musculus, 72 h) [µM] | EC50 ([2]; Mus musculus, 72 h) [µM] | EC50 [2] [µM] | EC50 [1] [µM]
CC1CCC(C)N(c2ncnc3c2sc2nc4c(cc23)COC(C)(C)C4)C1 (stereo not shown) [Compound 236] | > 10 | > 10 | – | –
COc1ccc(CCNc2ncnc3c2sc2nc4c(cc23)COC(C)(C)C4)cc1C(F)(F)F [Compound 161] | 3 to 10 | 3 to 10 | – | –
CC1(C)Cc2nc3sc4c(NCCc5cncnc5)ncnc4c3cc2CO1 [Compound 123] | > 10 | > 10 | – | –
CC1(C)Cc2nc3sc4c(NCCc5cccnc5)ncnc4c3cc2CO1 [Compound 124] | > 10 | > 10 | – | –
CC1(C)Cc2nc3sc4c(NCCc5ccc(NC(=O)c6ccccc6)c([N+](=O)[O-])c5)ncnc4c3cc2CO1 [Compound 197] | 1 to 3 | 3 to 10 | – | –
CC1CCCCN1c1ncnc2c1sc1nc3c(cc12)COC(C)(C)C3 (stereo not shown) [Compound 282] | > 10 | > 10 | – | –
Cn1cnc2cc(CCNc3ncnc4c3sc3nc5c(cc34)COC(C)(C)C5)ccc21 [Compound 173] | < 1 | 3 to 10 | – | –
COc1ccc(C2CCN(c3ncnc4c3sc3nc5c(cc34)COC(C)(C)C5)C2)cc1F (stereo not shown) [Compound 105] | 3 to 10 | 3 to 10 | – | –
Cc1nc(NCCc2ccc3[nH]cnc3c2)c2sc3ncccc3c2n1 [Compound 309, N-(2-(1H-Benzo[d]imidazol-5-yl)ethyl)-2-methylpyrido[3′,2′:4,5]thieno[3,2-d]pyrimidin-4-amine] | 3 to 10 | > 10 | – | –
CC(C)CCNc1ncnc2c1sc1nc3c(cc12)COC(C)(C)C3 [Compound 239] | > 10 | > 10 | – | –
CCN(CC)CCNc1nc(C)nc2c1sc1nc3c(cc12)COC(C)(C)C3 [Compound 234] | > 10 | > 10 | – | –
Cc1nc(NCc2ccccc2)c2sc3nc4c(cc3c2n1)COC(C)(C)C4 [Compound 254] | > 10 | > 10 | – | –
CN(CCO)c1ncnc2c1sc1nc3c(cc12)COC(C)(C)C3 [Compound 278] | > 10 | > 10 | – | –
COc1ccc(CCNc2nc(C)nc3c2sc2nc4c(cc23)COC(C)(C)C4)cc1OC [Compound 273] | 3 to 10 | > 10 | – | –
CC1(C)Cc2nc3sc4c(NCCc5ccc(-c6cnco6)cc5)ncnc4c3cc2CO1 [Compound 149] | > 10 | > 10 | – | –
CC1(C)Cc2nc3sc4c(NCCc5ccc6[nH]c(CO)nc6c5)ncnc4c3cc2CO1 [Compound 179] | < 1 | 3 to 10 | – | –
CC1(C)Cc2nc3sc4c(NCCOCCO)ncnc4c3cc2CO1 [Compound 284] | > 10 | > 10 | – | –
CC1(C)Cc2nc3sc4c(NC5CCCCC5)ncnc4c3cc2CO1 [Compound 261] | > 10 | > 10 | – | –
CCCCNc1nc(C)nc2c1sc1nc3c(cc12)COC(C)(C)C3 [Compound 229] | 3 to 10 | > 10 | – | –
Cc1nc(NN)c2sc3nc4c(cc3c2n1)COC(C)(C)C4 [Compound 244] | > 10 | > 10 | – | –
CN(c1ccc(CCNc2ncnc3c2sc2nc4c(cc23)COC(C)(C)C4)cc1)S(C)(=O)=O [Compound 146] | 3 to 10 | > 10 | – | –
CN(C)Cc1c2c(nc3sc4c(NCCc5ccc6[nH]cnc6c5)ncnc4c13)CC(C)(C)OC2 [Compound 334] | < 1 | 3 to 10 | – | –
CC1(C)Cc2nc3sc4c(NCCc5ccc(O)cc5)ncnc4c3cc2CO1 [Compound 154] | < 1 | 3 to 10 | – | –
CCN(CC)c1nc(C)nc2c1sc1nc3c(cc12)COC(C)(C)C3 [Compound 253] | > 10 | > 10 | – | –
CC1(C)Cc2nc3sc4c(NCCc5ccc(N)cc5)ncnc4c3cc2CO1 [Compound 151] | < 1 | 3 to 10 | – | –

SMILES | EC50 ([1]; Mus musculus, 72 h) [µM] | EC50 ([2]; Mus musculus, 72 h) [µM] | EC50 [2] [µM] | EC50 [1] [µM]
COc1ccc(CCNc2ncnc3c2sc2nc4c(cc23)COC(C)(C)C4)cc1F [Compound 122] | < 1 | > 10 | – | –
COCCOCCOCCOC(=O)c1c2c(nc3sc4c(NCCc5ccc6[nH]cnc6c5)ncnc4c13)CC(C)(C)OC2 [Compound 165, 2-(2-(2-Methoxyethoxy)ethoxy)ethyl 4-((2-(1H-benzo[d]imidazol-6-yl)ethyl)amino)-8,8-dimethyl-8,10-dihydro-7H-pyrano[3″,4″:5′,6′]pyrido[3′,2′:4,5]thieno[3,2-d]pyrimidine-11-carboxylate] | 1 to 3 | > 10 | – | –
CC(C)CNc1ncnc2c1sc1nc3c(cc12)COC(C)(C)C3 [Compound 224] | > 10 | > 10 | – | –
CC(=O)OC(C)c1nc2cc(CCNc3ncnc4c3sc3nc5c(cc34)COC(C)(C)C5)ccc2[nH]1 (stereo not shown) [Compound 185] | 1 to 3 | 3 to 10 | – | –
CC1(C)Cc2nc3sc4c(NCCc5ccc6[nH]cnc6c5)ncnc4c3c(COc3ccccc3)c2CO1 [Compound 322, N-(2-(1H-Benzo[d]imidazol-5-yl)ethyl)-8,8-dimethyl-11-(phenoxymethyl)-7,10-dihydro-8H-pyrano[3″,4″:5′,6′]pyrido[3′,2′:4,5]thieno[3,2-d]pyrimidin-4-amine] | < 1 | < 1 | – | –
CC1(C)Cc2nc3sc4c(N5CCCCC5)ncnc4c3cc2CO1 [Compound 138] | > 10 | > 10 | – | –
CCCCCCNc1ncnc2c1sc1nc3c(cc12)COC(C)(C)C3 [Compound 216] | > 10 | > 10 | – | –
COc1cccc(CCNc2ncnc3c2sc2nc4c(cc23)COC(C)(C)C4)c1OC [Compound 103] | > 10 | > 10 | – | –
CC(C)COCc1c2c(nc3sc4c(NCCc5ccc6[nH]cnc6c5)ncnc4c13)CC(C)(C)OC2 [Compound 323, N-(2-(1H-Benzo[d]imidazol-5-yl)ethyl)-11-(isobutoxymethyl)-8,8-dimethyl-7,10-dihydro-8H-pyrano[3″,4″:5′,6′]pyrido[3′,2′:4,5]thieno[3,2-d]pyrimidin-4-amine] | < 1 | < 1 | – | –
CC1(C)Cc2nc3sc4c(NCCc5ccc6[nH]cnc6c5)nc(-c5ccccc5)nc4c3cc2CO1 [Compound 315] | 1 to 3 | 3 to 10 | – | –
CC1(C)Cc2nc3sc4c(NCCc5ccc6c(c5)OCCO6)ncnc4c3cc2CO1 [Compound 131] | > 10 | > 10 | – | –
CCCOc1ccc(CCNc2ncnc3c2sc2nc4c(cc23)COC(C)(C)C4)cc1OC [Compound 115] | 3 to 10 | 1 to 3 | – | –
Cc1nc(N2CCC(C)CC2)c2sc3nc4c(cc3c2n1)COC(C)(C)C4 [Compound 263] | > 10 | > 10 | – | –
CC1(C)Cc2nc3sc4c(NCCc5ccc(NS(C)(=O)=O)cc5)ncnc4c3cc2CO1 [Compound 152] | 3 to 10 | 3 to 10 | – | –
Cc1nc(NC(C)CCc2ccccc2)c2sc3nc4c(cc3c2n1)COC(C)(C)C4 (stereo not shown) [Compound 252] | > 10 | – | > 10 | –
Cc1nc(N2CCOCC2)c2sc3nc4c(cc3c2n1)COC(C)(C)C4 [Compound 223] | > 10 | > 10 | – | –
CC1(C)Cc2nc3sc4c(NCCc5ccc(NC(=O)C(F)(F)F)c([N+](=O)[O-])c5)ncnc4c3cc2CO1 [Compound 182] | 1 to 3 | 3 to 10 | – | –
COc1ccc(CCNc2ncnc3c4c(sc23)=NC2CC(C)(C)OCC2C=4)c(OC)c1 (stereo not shown) [Compound 125] | 1 to 3 | > 10 | – | –
C=CCNc1ncnc2c1sc1nc3c(cc12)COC(C)(C)C3 [Compound 221] | – | > 10 | – | > 10
CC1(C)Cc2nc3sc4c(NCCc5ccc(N)c(N)c5)ncnc4c3cc2CO1 [Compound 193] | < 1 | 1 to 3 | – | –
COc1ccc(CCn2cnc3c(sc4nc5c(cc43)COC(C)(C)C5)c2=O)cc1F [Compound 301] | > 10 | > 10 | – | –
CCCCN(CCCC)c1ncnc2c1sc1nc3c(cc12)COC(C)(C)C3 [Compound 258] | > 10 | > 10 | – | –
CCN(CCO)c1ncnc2c1sc1nc3c(cc12)COC(C)(C)C3 [Compound 289] | 3 to 10 | > 10 | – | –
CSc1c2c(nc3sc4c(NCCc5ccc6nc[nH]c6c5)ncnc4c13)CC(C)(C)OC2 [Compound 167] | < 1 | < 1 | – | –
Cc1nc(NCCc2ccccc2)c2sc3nc4c(cc3c2n1)COC(C)(C)C4 [Compound 240] | 3 to 10 | > 10 | – | –
